Results as given in PMC8012336, “An automated and high-throughput-screening compatible pluripotent stem cell-based test platform for developmental and reproductive toxicity assessment of small molecule compounds” (Cell Biology and Toxicology, 2020).
In brackets after ≈: the same amount, converted by molar mass.

Assays:
[1] = Automated CellTiter-Glo luminescent cell viability (cytotoxicity) assay, 5 d; conditions: mouse
Description: The CellTiter-Glo® luminescent cell viability assay (Promega, Cat. No. G7573) was automated in 96-well format on the lab automation platform Fluent® (Tecan, Männedorf, Switzerland). The procedure allowed the testing of six compounds in mESC-D3 and NIH/3T3 cells in parallel. On the first day, PBS was dispensed into the peripheral wells of the assay plates (200 μl/well) using the Multiple Channel Arm (MCA). Mouse ES-D3 and NIH/3T3 cells were plated (50 μl/well, 1 × 10^4 cells/ml)) using the Flexible Channel Arm (FCA) and transported into the Cytomat™ 10 (Thermo Fisher Scientific) for incubation using the Robotic Gripper Arm (RGA). A 7-point dilution series of the test compounds and control solutions were prepared in PBS or DMSO (Carl Roth, Cat. No. HN47.1) under the laminar flow, transferred to a 96-well 0.5-ml Masterblock plate (Greiner bio-one, Cat. No. 786261) and placed on the worktable. On the Fluent the compounds were transferred to a 96-well 2-ml Masterblock plate (Greiner bio-one, Cat. No. 780271) and further diluted in growth media using the FCA. Two hours after cell plating compounds and controls were transferred to the assay plate with the FCA (150 μl/well) and transported back in the Cytomat 10. On day three of the assay, the media was exchanged using the MCA: old media was aspirated and dispensed into a 96-deep-well plate (“waste”), freshly prepared compound, and control solution was dispensed into the assay plate. After two more days of incubation, the cell viability was determined using the CellTiter-Glo assay. The assay plates were transported from the Cytomat 10 to the Carousel (Tecan) to adapt to room temperature. After 25 min the cell supernatant was removed partially (80 μl/well) and CellTiter-Glo reagent was dispensed (50 μl/well). The assay plate was placed on a shaker for 1 min and afterward incubated 25 min in the Carousel before the Luminescence signal was detected on the Infinite M1000 Pro plate reader (Tecan).
(§1) Toxicity data from the MTT and CellTiter-Glo Assay was normalized against the vehicle control (100% viability) and plotted against the logarithmic compound concentration.

[2] = Manual MTT cell viability assay, 7 d; assay type: cell-based, mouse; conditions: mouse, manual, in brackets the two individual experiments
Description: (§2) The MTT cell viability assay was performed as described (Seiler and Spielmann [2011]) with modifications. In brief, 96-well cell culture plates were coated with gelatin (0.1%) before plating mESC-D3. All peripheral wells of the assay plate were filled with 200 μl growth media (“blank”). Afterward, NIH/3T3 and mESC-D3 were plated in growth media (1 × 10^4 cells/ml, 50 μl/well). […] Vehicle (PBS) and positive control (5-fluorouracil) wells were also included on all assay plates. Three and 5 days after seeding the cell supernatant was replaced by freshly prepared compound solution (200 μl/well). Seven days after seeding the cell viability was detected. Therefore, the cell supernatant was aspirated from all wells, MTT solution (5 mg/ml) was added (20 μl/well) and the assay plate was incubated for 2 h at 37 °C and 5% CO2 in a humidified atmosphere. Afterward, all liquid was removed from the wells and MTT desorb solution (0.7% SDS in 2-propanol (Carl Roth, Cat. No. 9866.5), pre-warmed to 37 °C) was dispensed (130 μl/well). The assay plate was placed on a shaker for 15 min. Remaining precipitates were suspended by pipetting up and down with a multichannel pipette before measuring the absorption at 570 nm on a microtiter plate reader using 630 nm as a reference wavelength.
as §1

[3] = Manual CellTiter-Glo luminescent cell viability assay (7 d or 5 d); assay type: cell-based, mouse; conditions: mouse, in brackets the two individual experiments
Description: 96-well cell culture plates were coated with gelatin (0.1%) before plating mESC-D3. All peripheral wells of the assay plate were filled with 200 μl growth media. In order to assess compound toxicity on mESC-D3 and NIH/3T3 cells, cell suspensions of NIH/3T3, and mESC-D3 were prepared in growth media (1 × 10^4 cells/ml) and were transferred to all remaining wells (50 μl/well). A 7-point dilution series in growth media was prepared for each test compound and was transferred to the assay plate 2 h after cell seeding (150 μl/well). Afterward, the cells were incubated in a humidified atmosphere at 37 °C and 5% CO2. Three and 5 days after seeding the cell supernatant was replaced by freshly prepared compound solution (200 μl/well). […] The assay plate was placed on a shaker for 1 min and after another 10 min incubation at room temperature in the dark the luminescence signal was detected on a plate reader.
as §1

mESC-D3 [4] = experiment: Conventional mouse ES-D3 differentiation assay in hanging drop format (petri dish; cardiomyocyte contraction, day 10); assay type: cell-based; conditions: manual; beating cardiomyocytes at day 10; in brackets the two individual experiments
Description: Separate Petri dishes were used for each concentration of test compound, untreated control, and solvent control. […] The EB suspension was incubated for 2 days. On day five of the assay, a fresh compound dilution series was prepared in media and transferred into 24-well cell culture plates (1 ml/well, Greiner bio-one, Cat. No. 662641). A separate 24-well plate was used for each compound concentration, untreated control, and solvent control (24 wells per condition). One EB was transferred from the Petri dish into each well of the 24-well plate. After further 5 days of incubation (= day 10 of the assay), cardiomyocyte contraction was determined in each well under the light microscope.

[5] = test system: mESC-D3 and NIH/3T3 cells; conditions: manual murine EST assay; prediction model of Seiler and Spielmann 2011
mESC-D3 [6] = test system: mESC-D3; design: method as in Scholz et al. [1999]; conditions: ZEBET value, 7 d result; ref Scholz et al. [1999]; cited from earlier work
NIH/3T3 = test system: NIH/3T3; design: method as in Scholz et al. [1999]; conditions: ZEBET value, 7 d result; ref Scholz et al. [1999]; cited from earlier work
mESC-D3 [7] = test system: mESC-D3; design: method as in Scholz et al. [1999]; conditions: ZEBET value printed beside hanging drop differentiation result; ref Scholz et al. [1999]; cited from earlier work
mESC-D3 [8] = assay type: cell-based, mouse
Description: As an alternative to the morphological analysis at day 10, differentiation can be analyzed at day 7 of the assay by flow cytometry using the molecular flow EST (Buesen et al. [2009]). Previously, staining of cardiomyocytes was performed using an unconjugated primary monoclonal antibody directed against the sarcomeric MHC (clone MF20), followed by binding of a secondary biotin-conjugated goat anti-mouse IgG antibody which is then detected with the fluorochrome PE-SA (phycoerythrin-conjugated streptavidin) (Seiler and Spielmann [2011]). […] Of note, these experiments were performed in parallel with the same batch of spontaneously differentiated mESCs.
Embryoid bodies were formed in hanging drops (Petri dish) as already described. On day 5 of the assay, the EBs were transferred into a larger Petri dish and incubated for two more days at 37 °C, 5% CO2, and 95% humidity. Afterward, the EBs were dissociated using the Embryoid Body Dissociation Kit (Miltenyi Biotec, Cat. No. 130-096-348). EBs from two Petri dishes were harvested in one 15 ml tube and washed once with 10 ml PBS. The supernatant was discarded after centrifugation and a pre-warmed enzyme mix was added. The EB/enzyme mix was incubated for 10 min at 37 °C, dissociated for 1 min with a 1000 μl pipette, incubated for 5 min and mechanically dissociated again for 1 min. After the addition of 3 ml PBS, the cell suspension was passed through a 70-μm filter into a new 15-ml tube. The filter was then washed with 3 ml PBS and discarded afterward. The cell suspension was centrifuged for 5 min at 300 rpm. The supernatant was discarded afterward, cells were suspended in PBS and counted. For viability staining, 10^6 cells were suspended in 100 μl staining reagent (LIVE/DEAD™ Fixable Green Dead Stain Kit, Life Technologies, Cat. No. L34969), incubated for 30 min at 4 °C and washed with 1 ml PBS. For fixation, cells were suspended in 100 μl fixation buffer (BioLegend, Cat. No. 420801) and incubated 20 min at room temperature. For the intracellular staining, cells were washed twice with 1 ml permeabilization buffer (BioLegend, Cat. No. 421002) and suspended in 50 μl permeabilization buffer supplemented with 50 μl of pre-diluted (1:5) antibody (mouse IgG2B anti-human Myosin Heavy Chain APC-conjugated, mouse IgG2B APC-conjugated isotype control, R&D Systems, Cat. No. IC4470A). After 1 h incubation at room temperature cells were washed twice with 1 ml permeabilization buffer and suspended in FACS buffer. Within 2–3 h samples were measured on an LSR II flow cytometer (Beckton Dickinson). Data analysis was done using FlowJo software (Version 10.0.8; Tree Star).

[9] = Manual human EST cytotoxicity assay, MTT, 5 d; conditions: human
Description: (§3) The cytotoxicity assessment with a reduced assay time of 5 days combined with either NADH- or ATP-based detection was also carried out with human induced pluripotent stem cells (hiPSCs). […] Furthermore, differences in the cytotoxicity effects between the hiPSCs and HDFfs were more pronounced than in the mouse cells. Similar to the cytotoxicity-based assay the overall variance in the data is reduced when viability data was obtained by an ATP-based read-out.
as §2
(§4) Figure S1: Step-wise evolution of the cytotoxicity assay towards the use of human cell lines. Related to Figure 2. Cytotoxicity assays were carried out with two compound sets on hiPSC line ZIPi013-E and HDFf, from which they were derived. […] A) 5 day MTT assay and manual handling. B) As in A), but using CellTiter-Glo® viability assay. All points in the graph represent the mean of 6 individual data points, including the standard error.

[10] = Manual human EST cytotoxicity assay, CellTiter-Glo, 5 d; conditions: human
Description: as §3
96-well cell culture plates were coated with gelatin (0.1%) before plating mESC-D3. All peripheral wells of the assay plate were filled with 200 μl growth media. In order to assess compound toxicity on mESC-D3 and NIH/3T3 cells, cell suspensions of NIH/3T3, and mESC-D3 were prepared in growth media (1 × 10^4 cells/ml) and were transferred to all remaining wells (50 μl/well). A 7-point dilution series in growth media was prepared for each test compound and was transferred to the assay plate 2 h after cell seeding (150 μl/well). Afterward, the cells were incubated in a humidified atmosphere at 37 °C and 5% CO2. Three and 5 days after seeding the cell supernatant was replaced by freshly prepared compound solution (200 μl/well). Seven days after seeding the assay plate was taken out of the incubator and located at room temperature for 10 min, before cell supernatant was aspirated (80 μl/well) and CellTiter-Glo® reagent was dispensed (50 μl/well). The assay plate was placed on a shaker for 1 min and after another 10 min incubation at room temperature in the dark the luminescence signal was detected on a plate reader.
as §4

[11] = mESC-D3 cells (mouse embryonic stem cells)
[12] = NIH/3T3 cells, read-out: Cytotoxicity assay MTT, 7 d IC50 NIH/3T3
[13] = mESC-D3 cells, read-out: Cytotoxicity assay MTT, 7 d IC50 mESC-D3
[14] = NIH/3T3 cells, read-out: Cytotoxicity assay CTG, 5 d IC50 NIH/3T3
[15] = NIH/3T3 cells, read-out: Cytotoxicity assay CTG, 7 d IC50 NIH/ 3T3
[16] = mESC-D3 cells, read-out: Cytotoxicity assay CTG, 5 d IC50 mESC-D3
[17] = mESC-D3 cells, read-out: Cytotoxicity assay CTG, 7 d IC50 mESC-D3
[18] = HDFf (human dermal fibroblasts of fetal origin)

For `C[C@@H]1C[C@H]2[C@@H]3CCC4=CC(=O)C=C[C@]4(C)[C@@]3(F)[C@@H](O)C[C@]2(C)[C@@]1(O)C(=O)CO` [Dexamethasone, dexamethasone], the IC50 at 5 d ([1]; NIH/3T3 cells) was > 50 µg/mL, the IC50 at 5 d [1, 11] was 18.7 µg/mL (≈ 47.6 µM) and the IC50 at 7 d [2, 12] was 49.2 µg/mL (≈ 125 µM). The IC50 at 7 d [2, 13] was 23.5 µg/mL (≈ 59.9 µM), the IC50 at 5 d [3, 14] was 34.8 µg/mL (≈ 88.7 µM) and the IC50 at 7 d [3, 15] was 35.2 µg/mL (≈ 89.7 µM). For the same compound, the IC50 at 5 d [3, 16] was 15.7 µg/mL (≈ 40 µM), the IC50 at 7 d [3, 17] was 20.8 µg/mL (≈ 53 µM) and the “Differentiation assay in hanging drop (petri dish) ID50 mESC-D3” value (mESC-D3 [4]) was 25.7 (29.1; 22.3) µg/ml. For the same compound, the Compound classification [5] was “weak embryotoxicity”, the “IC50 mESC-D3 (ZEBET)” value (mESC-D3 [6]) was 23 µg/mL (≈ 58.6 µM) and the “IC50 NIH/3T3 (ZEBET)” value (NIH/3T3) was 26 µg/mL (≈ 66.2 µM). The “ID50 mESC-D3 (ZEBET)” value (mESC-D3 [7]) was 18.3 µg/mL (≈ 46.6 µM).
With `CCCC[C@@H](C)[C@@H](OC(=O)C[C@@H](CC(=O)O)C(=O)O)[C@H](C[C@@H](C)C[C@H](O)CCCC[C@@H](O)C[C@H](O)[C@H](C)N)OC(=O)C[C@@H](CC(=O)O)C(=O)O` [Fumonisin, fumonisine B1] the “ID50 FACS (MHC-positive cells)” value (mESC-D3 [8]; flow cytometry, day 7) was 2.26 µg/mL (≈ 3.13 µM) and the MHC-positive cells (mESC-D3 [8]; treated with 10 μg/ml, untreated 31% (hydroxyurea), 26% (fumonisine B1)) was 3%.
In the case of `CC1(C)S[C@@H]2[C@H](NC(=O)Cc3ccccc3)C(=O)N2[C@H]1C(=O)O` [Penicillin G, penicillin G], the IC50 at 5 d ([1]; NIH/3T3 cells) is reported as > 1000 µg/mL, the IC50 at 5 d [1, 11] is reported as > 1000 µg/mL and the IC50 at 7 d [2, 12] is reported as > 1000 µg/mL. For the same compound, the IC50 at 7 d [2, 13] was > 1000 µg/mL, the IC50 at 5 d [3, 14] was 992 µg/mL (≈ 2970 µM) and the IC50 at 7 d [3, 15] was > 1000 µg/mL. For the same compound, the IC50 at 5 d [3, 16] was > 1000 µg/mL, the IC50 at 7 d [3, 17] was > 1000 µg/mL and the “Differentiation assay in hanging drop (petri dish) ID50 mESC-D3” value (mESC-D3 [4]) was 1000 (> 1000; > 1000) µg/ml. It also gave an IC50 at 5 d [9, 18] of 822 µg/mL (≈ 2460 µM), an IC50 at 5 d ([9]; hiPSC line ZIPi013-E) of 750 µg/mL (≈ 2240 µM) and an IC50 at 5 d [10, 18] of 795 µg/mL (≈ 2380 µM). For the same compound, the IC50 at 5 d ([10]; hiPSC line ZIPi013-E) was > 1000 µg/mL, the “IC50 mESC-D3 (ZEBET)” value (mESC-D3 [6]) was 2950 µg/mL (≈ 8820 µM) and the “IC50 NIH/3T3 (ZEBET)” value (NIH/3T3) was 1586 µg/mL (≈ 4740 µM). For the same compound, the “ID50 mESC-D3 (ZEBET)” value (mESC-D3 [7]) was 3450 µg/mL (≈ 10300 µM).
